The structures appear in SMILES notation. Bounds are passed on as bounds.

One assay deals with T1, human recombinant HDAC6 (Homo sapiens, UniProt Q9UBN7).
T1 construct: purchased Calbiochem 382180
T1 sequence (Q9UBN7 1-1215): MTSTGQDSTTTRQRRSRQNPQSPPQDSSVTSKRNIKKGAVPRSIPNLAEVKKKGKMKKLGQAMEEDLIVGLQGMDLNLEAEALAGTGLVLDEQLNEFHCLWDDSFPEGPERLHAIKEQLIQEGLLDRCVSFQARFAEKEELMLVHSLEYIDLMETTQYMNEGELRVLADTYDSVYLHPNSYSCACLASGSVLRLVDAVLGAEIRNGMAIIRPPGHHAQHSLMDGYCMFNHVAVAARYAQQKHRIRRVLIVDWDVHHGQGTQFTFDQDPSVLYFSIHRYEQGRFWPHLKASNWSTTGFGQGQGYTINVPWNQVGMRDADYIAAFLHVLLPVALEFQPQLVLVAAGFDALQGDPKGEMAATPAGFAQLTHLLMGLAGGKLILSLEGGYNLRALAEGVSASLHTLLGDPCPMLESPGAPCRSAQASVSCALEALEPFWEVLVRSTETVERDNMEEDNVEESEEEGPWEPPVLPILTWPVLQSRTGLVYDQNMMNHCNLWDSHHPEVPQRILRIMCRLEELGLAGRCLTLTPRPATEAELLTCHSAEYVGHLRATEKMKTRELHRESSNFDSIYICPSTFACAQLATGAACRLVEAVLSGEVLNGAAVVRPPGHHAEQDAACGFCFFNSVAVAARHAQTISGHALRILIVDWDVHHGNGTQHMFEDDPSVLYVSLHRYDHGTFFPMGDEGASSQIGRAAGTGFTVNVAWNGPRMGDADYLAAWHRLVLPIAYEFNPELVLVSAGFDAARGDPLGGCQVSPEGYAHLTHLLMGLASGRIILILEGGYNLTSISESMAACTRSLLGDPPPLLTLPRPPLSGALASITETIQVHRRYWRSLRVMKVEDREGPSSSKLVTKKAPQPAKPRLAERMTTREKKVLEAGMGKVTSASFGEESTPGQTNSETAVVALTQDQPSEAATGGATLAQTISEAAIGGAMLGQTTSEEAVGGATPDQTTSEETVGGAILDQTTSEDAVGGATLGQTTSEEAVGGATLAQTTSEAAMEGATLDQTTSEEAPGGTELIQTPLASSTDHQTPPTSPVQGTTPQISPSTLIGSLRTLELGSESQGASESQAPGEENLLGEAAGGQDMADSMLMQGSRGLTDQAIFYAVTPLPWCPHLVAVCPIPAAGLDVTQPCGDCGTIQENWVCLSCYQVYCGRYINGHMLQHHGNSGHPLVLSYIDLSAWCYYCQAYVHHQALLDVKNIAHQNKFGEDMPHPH
The assay can be described thus: HDAC6 enzyme activity inhibition test (HDAC Fluorometric Drug Discovery Kit). The conditions noted are these: for HDAC6 selectivity (fold): HDAC6 over HDAC1; for IC50: human recombinant HDAC6, same protocol as HDAC1. The format is biochemical. The procedure, abridged: (§1)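 Recombinant human HDAC1 or HDAC6 (0.3 μg) reacted with 10 μM Fluor de Lys SIRT1 substrate and 5-fold diluted compound for 60 min at 30 °C. Developer II added 30 min; fluorescence read at Ex 360/Em 460 and IC50 calculated.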

A further assay addresses T2, human recombinant HDAC1 (Homo sapiens, UniProt Q13547).
T2 construct: purchased Enzo Life Science BML-SE456
Put plainly: HDAC1 enzyme activity inhibition test (HDAC Fluorometric Drug Discovery Kit). The conditions noted are these: 30° C., 60 minutes, 10 μM substrate. The format is biochemical. The procedure, abridged: as §1

T2 sequence (Q13547 whole entry): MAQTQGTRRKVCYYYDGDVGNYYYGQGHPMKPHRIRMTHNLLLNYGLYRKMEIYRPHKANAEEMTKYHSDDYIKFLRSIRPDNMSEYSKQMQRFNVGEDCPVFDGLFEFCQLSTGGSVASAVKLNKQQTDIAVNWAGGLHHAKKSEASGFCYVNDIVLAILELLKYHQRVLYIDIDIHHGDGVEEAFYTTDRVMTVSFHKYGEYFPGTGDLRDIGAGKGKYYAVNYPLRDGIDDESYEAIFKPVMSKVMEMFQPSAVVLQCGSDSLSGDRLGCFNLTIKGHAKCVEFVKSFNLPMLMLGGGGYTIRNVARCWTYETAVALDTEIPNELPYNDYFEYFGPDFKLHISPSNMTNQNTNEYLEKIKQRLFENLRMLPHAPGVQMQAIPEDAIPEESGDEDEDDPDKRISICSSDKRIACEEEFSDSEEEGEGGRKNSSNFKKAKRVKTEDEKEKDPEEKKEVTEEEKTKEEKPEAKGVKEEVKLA

The term IC50 denotes the concentration at which inhibition is half-maximal. In the case of `FC(F)c1nnc(-c2ccc(Cn3nc(-c4ccc(CN5CCCC5)cc4)oc3=S)nc2)o1` [Compound 93, 3-[[5-[5-(difluoromethyl)-1,3,4-oxadiazol-2-yl]-2-pyridyl]methyl]-5-[4-(pyrrolidin-1-ylmethyl)phenyl]-1,3,4-oxadiazol-2-thione], at human recombinant HDAC6, the “HDAC6 selectivity (fold)” value is 2890 fold and the 50% inhibitory concentration (IC50) worked out at 17.3 nM. On human recombinant HDAC1, the half-maximal inhibitory concentration (IC50) is greater than 50000 nM.

Take `FC(F)c1nnc(-c2ccc(Cn3nc(-c4ccc(CN5CCCCC5)cc4)oc3=S)nc2)o1` [Compound 94, 3-[[5-[5-(difluoromethyl)-1,3,4-oxadiazol-2-yl]-2-pyridyl]methyl]-5-[4-(1-piperidylmethyl)phenyl]-1,3,4-oxadiazol-2-thione]: the “HDAC6 selectivity (fold)” value at human recombinant HDAC6 is given as 1672 fold. The IC50 is 29.9 nM at human recombinant HDAC6 and greater than 50000 nM on human recombinant HDAC1.

As to `FC(F)c1nnc(-c2ccc(Cn3nc(-c4ccc(CN5CCOCC5)cc4)oc3=S)nc2)o1` [Compound 95, 3-[[5-[5-(difluoromethyl)-1,3,4-oxadiazol-2-yl]-2-pyridyl]methyl]-5-[4-(morpholinomethyl)phenyl]-1,3,4-oxadiazol-2-thione], at human recombinant HDAC6, the “HDAC6 selectivity (fold)” value is listed as 574 fold and the IC50 is 87.1 nM. The 50% inhibitory concentration (IC50) on human recombinant HDAC1 was greater than 50000 nM.

As to `CC1CCN(Cc2ccc(-c3nn(Cc4ccc(-c5nnc(C(F)F)o5)cn4)c(=S)o3)cc2)CC1` [Compound 96, 3-[[5-[5-(difluoromethyl)-1,3,4-oxadiazol-2-yl]-2-pyridyl]methyl]-5-[4-[(4-methyl-1-piperidyl)methyl]phenyl]-1,3,4-oxadiazol-2-thione], at human recombinant HDAC6, the “HDAC6 selectivity (fold)” value is listed as 1208 fold and the IC50 stood at 41.4 nM. For the same molecule, the concentration for half-maximal inhibition (IC50) at human recombinant HDAC1 was greater than 50000 nM.

Regarding `FC(F)c1nnc(-c2ccc(Cn3nc(-c4ccc(CN5CC[C@@H](F)C5)cc4)oc3=S)nc2)o1` [Compound 97, 3-[[5-[5-(difluoromethyl)-1,3,4-oxadiazol-2-yl]-2-pyridyl]methyl]-5-[4-[[(3R)-3-fluoropyrrolidin-1-yl]methyl]phenyl]-1,3,4-oxadiazol-2-thione], on human recombinant HDAC6, the “HDAC6 selectivity (fold)” value was determined as 862 fold. The 50% inhibitory concentration (IC50) at human recombinant HDAC6 is 58.1 nM; on human recombinant HDAC1, greater than 50000 nM.

In the case of `FC(F)c1nnc(-c2ccc(Cn3nc(-c4ccc(CN5CC[C@H](F)C5)cc4)oc3=S)nc2)o1` [Compound 98, 3-[[5-[5-(difluoromethyl)-1,3,4-oxadiazol-2-yl]-2-pyridyl]methyl]-5-[4-[[(3S)-3-fluoropyrrolidin-1-yl]methyl]phenyl]-1,3,4-oxadiazol-2-thione], at human recombinant HDAC6, the “HDAC6 selectivity (fold)” value is 552 fold and the IC50 was determined as 90.6 nM. Moreover, the IC50 on human recombinant HDAC1 was greater than 50000 nM.

On to `FC(F)c1nnc(-c2ccc(Cn3nc(-c4cccc(CN5CCOCC5)c4)oc3=S)nc2)o1` [Compound 99, 3-[[5-[5-(difluoromethyl)-1,3,4-oxadiazol-2-yl]-2-pyridyl]methyl]-5-[3-(morpholinomethyl)phenyl]-1,3,4-oxadiazol-2-thione], for which, on human recombinant HDAC6, the “HDAC6 selectivity (fold)” value is on record as 511 fold and the IC50 was found to be 97.8 nM. In addition, the half-maximal inhibitory concentration (IC50) at human recombinant HDAC1 was greater than 50000 nM.

Turning to `CCN1CCN(c2cccc(-c3nn(Cc4ccc(-c5nnc(C(F)F)o5)cn4)c(=S)o3)n2)CC1` [Compound 100, 3-[[5-[5-(difluoromethyl)-1,3,4-oxadiazol-2-yl]-2-pyridyl]methyl]-5-[6-(4-ethylpiperazin-1-yl)-2-pyridyl]-1,3,4-oxadiazol-2-thione], on human recombinant HDAC6, the “HDAC6 selectivity (fold)” value came to 2049 fold and the IC50 is 24.4 nM. Further, the 50% inhibitory concentration (IC50) at human recombinant HDAC1 was greater than 50000 nM.

Take `CC(C)N1CCN(c2cccc(-c3nn(Cc4ccc(-c5nnc(C(F)F)o5)cn4)c(=S)o3)n2)CC1` [Compound 101, 3-[[5-[5-(difluoromethyl)-1,3,4-oxadiazol-2-yl]-2-pyridyl]methyl]-5-[6-(4-isopropylpiperazin-1-yl)-2-pyridyl]-1,3,4-oxadiazol-2-thione]: on human recombinant HDAC6, the “HDAC6 selectivity (fold)” value was found to be 2538 fold and the IC50 was determined as 19.7 nM. On human recombinant HDAC1, the IC50 was greater than 50000 nM.
